Results from patent publication US20020090619A1, “Methods for identifying mitochondrial divalent cation transporters” (priority 2000, published 2002).

Experiments:
yeast mitochondria = test: Membrane potential ΔΨ of isolated yeast mitochondria (safranin O); type: biochemical, Saccharomyces cerevisiae; settings: BSA absent
Procedure: The yeast strain W303-1A (Saccharomyces cerevisiae) was grown aerobically at 30° C. in a medium containing 2% lactate, 1% yeast extract, 2% peptone, 0.05% dextrose, and 0.01% adenine at pH 5.0, and cells were harvested during the logarithmic phase (A600=1.8−2.2). Mitochondria were isolated from spheroplasts as previously described (Jung et al., 1997 J. Biol. Chem. 272:21104), except that 0.6 M sucrose was used in the homogenization medium instead of 0.6 M mannitol (Daum et al., 1982 J. Biol. Chem. 257:13028). The resulting preparations were maintained on ice and were suspended in 0.6 M mannitol 20 mM HEPES (K+) (pH 6.8), containing 0.75 mg/ml BSA and 0.1 mM EGTA. Protein concentration was determined by a reduced volume Biuret method in which 50 μl of the final preparation were solubilized by adding an equal volume of 10% deoxycholate (Na+), with 0.4 ml of Biuret reagent added to the resulting mixture. BSA was employed as the standard.
Unless otherwise noted, mitochondria were incubated at 1 mg protein/ml and at approximately 25° C. in a medium that contained 0.6 M mannitol, 10 mM Pi (K+), 10 mM Hepes (TEA+), pH 7.2, plus 1 mM ethanol as an oxidizable substrate. Compounds having a low solubility in water were added from stock solutions prepared in methanol or DMSO. Ca2+ transport and membrane potential were monitored using the indicating dyes antipyrylazo III (ΔA720-790) and safranin O (ΔA511-533), respectively (Akerman et al., 1976 FEBS Lett. 68:191; Scarpa et al., 1978 Biochem. 17:1378). An SLM Aminco DW-2C spectrophotometer operated in the dual wavelength mode was employed for these purposes. The same instrument, operated in split beam mode, was used to monitor mitochondrial swelling as a decrease in apparent absorbance of mitochondrial suspensions at 540 nm. Oxygen consumption data were obtained using a Clark-type electrode in parallel experiments. Atomic absorption spectroscopy was utilized to monitor the transport of other cations by yeast mitochondria. Briefly, samples were taken at appropriate times and the mitochondria were rapidly sedimented in a microcentrifuge. After carefully removing supernatants, the pellets were solubilized with 2 N percholoric acid (overnight) and centrifuged a second time. The resulting supernatants were diluted with an appropriate volume of distilled water and the concentration of the cation in question was subsequently determined.

intact yeast = test: Aequorin luminescence in intact yeast cells expressing mitochondrially targeted aequorin; type: cell-based, Saccharomyces cerevisiae
Procedure: Yeast cells (strain X4003-5B; leu2, ade1, his4, met2, ura3, trp5, gal1) obtained from the Yeast Genetic Stock Center (Berkeley, Calif.) were transformed with the pYES2 plasmid, encoding the human mitochondrially targeted apoaequorin fragment, using the lithium acetate method (Sambrook et al., 1989), and INVSc1 cells were transformed with the pGK plasmid encoding the yeast mitochondrially targeted apoaequorin fragment. Selection was carried out on plates prepared with synthetic complete medium minus uracil (SC-U) (Sherman, 1991 Meths. Enzymol. 194:3). Transformed colonies were cultured in a small volume of SC-U and assayed for aequorin activity in vitro as described by Nakajima et al. (1991 Proc. Nat. Acad. Sci. USA 88:6878). Briefly, the cells were harvested by centrifugation, resuspended in lysis buffer (50 mM Tris, 2 mM EDTA, 0.5 mM PMSF, pH 8 w/NaOH), disrupted by vortexing with glass beads, and then treated with 0.1% Triton X-100 to release apoaequorin from the mitochondria. Following centrifugation, 200 μl aliquots of the supernatants were incubated with coelenterazine (2.5 μM) and 2-mercaptoethanol (2 μl), for ˜3 hr while standing on ice, to form the luminescent aequorin from its apoprotein. The coelenterazine cofactor is highly hydrophobic and readily permeates yeast cell membranes (Nakajima et al., 1991) such that reconstitution was conducted without disrupting the cells in some cases. 2-mercaptoethanol was omitted when intact cells were employed. A transformant which yielded high luminescence (named X4003-5B-AEQmito1) was selected for further characterization.
For preculture, the transformant was inoculated into 50 ml of SC-U plus 2% glucose, and incubated in an air shaker at 180 rpm and 30° C. At 24 hr, the preculture was transferred to 500 ml of a medium containing 1% yeast extract, 2% peptone, 2% lactate, 1% galactose, 0.012% adenine, pH 5 w/NaOH, and growth was continued under conditions which were otherwise the same. […]
Luminescence measurements were carried out in 6×50 mm culture tubes, using a total volume of 0.3 ml, and were started by injection of 5-20 μl of mitochondria or cells. […] For each value, the ratio of observed luminescence (L) to the potential luminescence remaining (Lmax) was calculated, and compared to a calibration curve which relates this ratio to the free Ca^2+ concentration. […] The total luminescence available initially (Ltotal) must be known and was determined in separate experiments, wherein a saturating Ca^2+ concentration (20 μM) is employed to discharge the aequorin completely. This value allows Lmax to be calculated at any time, as Ltotal minus the sum of luminescence that already occurred. […]

O=C(COCC(=O)N(C1CCCCC1)C1CCCCC1)N(C1CCCCC1)C1CCCCC1 [ETH 129]
effect on ΔΨ, ionophore together with Ca2+ (yeast mitochondria; CaCl2 plus ionophore, FIG. 11C): sustained reduction | effect on ΔΨ, agent alone (yeast mitochondria; FIG. 11B): little effect | discharge of aequorin in intact cells (intact yeast; 6.5 μM ETH 129, FIG. 19A): discharge of essentially all of the aequorin | rise of mitochondrial Ca2+ concentration in response to ionophore (intact yeast; 6.5 μM ETH 129, cells oxidizing ethanol, 14 mM CaCl2, FIG. 20): 6 fold
